Measurements published in publication PMC3445454, “Broad and Cross-Clade CD4^+ T-Cell Responses Elicited by a DNA Vaccine Encoding Highly Conserved and Promiscuous HIV-1 M-Group Consensus Peptides” (PLoS ONE, 2012).
Read-outs that look alike come from different tables or passages of the source. Ends that are not written are not given here.

Assays:
Experiment in all cases: biochemical
[1] = molecular target: HLA-DP DPA1*03:01/DPB1*04:02 (Homo sapiens, UniProt P04440+P20036, A42M/A65V/A84D/A85E/L207M/L97S)
[2] = molecular target: T1, HLA-DP DPA1*01:03/DPB1*04:01 (Homo sapiens, UniProt P04440+P20036); assay type: binding
T1 sequence (P20036 29-260): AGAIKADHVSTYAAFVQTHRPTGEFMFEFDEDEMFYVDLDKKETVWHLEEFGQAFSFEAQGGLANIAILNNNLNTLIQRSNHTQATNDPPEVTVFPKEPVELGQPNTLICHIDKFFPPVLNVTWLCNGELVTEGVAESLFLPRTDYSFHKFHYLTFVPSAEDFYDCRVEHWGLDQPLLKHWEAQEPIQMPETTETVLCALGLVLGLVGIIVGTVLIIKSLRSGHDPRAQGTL
T1 sequence (P04440 30-258): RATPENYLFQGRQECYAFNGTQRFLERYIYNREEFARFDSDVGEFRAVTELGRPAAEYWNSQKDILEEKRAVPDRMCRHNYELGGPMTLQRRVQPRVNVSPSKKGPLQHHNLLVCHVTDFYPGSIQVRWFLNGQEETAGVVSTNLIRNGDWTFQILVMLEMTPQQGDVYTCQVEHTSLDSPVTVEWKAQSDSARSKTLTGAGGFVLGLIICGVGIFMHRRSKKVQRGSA

[3] = molecular target: HLA-DR DRB1*09:01 (Homo sapiens, UniProt P01903+P01911, A100R/A103E/D57H/D86V/F55Y/F60I/F76Y/I96F/K127E/L162R/M171V/P40D/Q125H/Q99R/R33Q/R42F/S133A/S66N/T210M/V115G/W38K/Y107V/Y59G/Y89S); assay type: binding; settings: read-out: Binding capacity/IC50 (nM) DRB1*09:01
[4] = molecular target: T2, HLA-DP DPA1*01:03/DPB1*03:01 (Homo sapiens, UniProt P04440+P20036, A65V/A84D/A85E/E86D/F38Y/G113D/G114E/G40L/I94L/L37V/M105V/M116V/P115A/R125K/T199I); assay type: binding
T2 sequence (P20036 29-260): T1 sequence (P20036 29-260)
T2 sequence (P04440 30-258 L37V/F38Y/G40L/A65V/A84D/A85E/E86D/I94L/M105V/G113D/G114E/P115A/M116V/R125K/T199I): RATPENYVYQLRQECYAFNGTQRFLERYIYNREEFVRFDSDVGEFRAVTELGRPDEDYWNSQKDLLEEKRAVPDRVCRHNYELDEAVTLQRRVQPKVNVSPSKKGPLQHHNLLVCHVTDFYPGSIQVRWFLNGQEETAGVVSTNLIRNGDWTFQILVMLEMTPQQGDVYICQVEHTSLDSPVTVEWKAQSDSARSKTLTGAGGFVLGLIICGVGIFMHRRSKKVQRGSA

[5] = molecular target: HLA-DR DRB1*15:01 (Homo sapiens, UniProt P01903+P01911); assay type: binding
[6] = molecular target: HLA-DP DPA1*02:01/DPB1*01:01 (Homo sapiens, UniProt P04440+P20036, F191V/F38Y/F64Y/G113D/G114E/K142R/L158P/L37V/M105V/M116V/M62Q/P115A/Q81R/R125K/R223Q/T114A/T199I/T259P)
[7] = molecular target: HLA-DR DRB1*10:01 (Homo sapiens, UniProt P01903+P01911, A100R/A169T/D57E/F55L/F60V/F69Y/F76Y/I96L/L162R/M171V/P40V/Q260P/Q39E/Q99R/R195Q/R42F/S149N/S66Y/T210M/V115G/V67A/W38E/Y59R/Y61H); assay type: binding; settings: read-out: Binding capacity/IC50 (nM) DRB1*10:01
[8] = molecular target: HLA-DR DRB1*07:01 (Homo sapiens, UniProt P01903+P01911, A100R/A102G/A103Q/D57E/D86V/E43K/F76Y/K127E/L162R/M171V/P40G/Q125H/Q99D/R33Q/R42Y/R54Q/S133A/S66F/T210M/V115G/Y107V/Y59L/Y89S); assay type: binding; settings: read-out: Binding capacity/IC50 (nM) DRB1*07:01
[9] = molecular target: HLA-DR DRB1*01:01 (Homo sapiens, UniProt P01903+P01911, A100R/D57E/F55L/F60I/F76Y/I96L/L162R/M171V/P40L/Q125E/R42F/V115G/Y59C); assay type: binding; settings: read-out: Binding capacity/IC50 (nM) DRB1*01:01
[10] = molecular target: HLA-DR DRB1*08:02 (Homo sapiens, UniProt P01903+P01911, A100R/A103L/A169T/F76Y/H45Y/I96F/K41T/L162R/M171V/P40S/Q125H/Q178H/Q39Y/Q99D/R218S/R42G/S66Y/V115G/W38E); assay type: binding; settings: read-out: Binding capacity/IC50 (nM) DRB1*08:02
[11] = molecular target: HLA-DR DRB1*04:01 (Homo sapiens, UniProt P01903+P01911, A100K/A169T/F76Y/I96L/K127E/L162R/M171V/N62H/P40V/Q125Y/R42H/S133A/S149N/S66Y/V115G/V209L/W38E); assay type: binding; settings: read-out: Binding capacity/IC50 (nM) DRB1*04:01
[12] = molecular target: HLA-DR DRB4*01:01 (Homo sapiens, UniProt P01903+P13762, G164S); assay type: binding; settings: read-out: Binding capacity/IC50 (nM) DRB4*01:01
[13] = molecular target: HLA-DR DRB1*13:02 (Homo sapiens, UniProt P01903+P01911, A100E/A169T/K41T/L162R/M171V/P40S/Q125H/Q178H/Q39Y/Q99D/R42S/S66N/T262R/V115G/W38E/Y61H); assay type: binding; settings: read-out: Binding capacity/IC50 (nM) DRB1*13:02
[14] = molecular target: HLA-DR DRB1*03:01 (Homo sapiens, UniProt P01903+P01911, A100K/A102G/A103R/A169T/F55Y/I96L/K41T/L162R/M171V/P40S/Q125H/Q178H/Q39Y/R42S/S66N/T106N/T262R/W38E/Y61H); assay type: binding; settings: read-out: Binding capacity/IC50 (nM) DRB1*03:01
[15] = read-out: Binding capacity/IC50 (nM) DPA1*01:03 DPB1*03:01
[16] = read-out: Binding capacity/IC50 (nM) DRB1*15:01

HLA-DP DPA1*02:01/DPB1*01:01, sequence (P20036 29-260 A42M/M62Q/Q81R/T114A/K142R/L158P/F191V/T259P, other chains not shown): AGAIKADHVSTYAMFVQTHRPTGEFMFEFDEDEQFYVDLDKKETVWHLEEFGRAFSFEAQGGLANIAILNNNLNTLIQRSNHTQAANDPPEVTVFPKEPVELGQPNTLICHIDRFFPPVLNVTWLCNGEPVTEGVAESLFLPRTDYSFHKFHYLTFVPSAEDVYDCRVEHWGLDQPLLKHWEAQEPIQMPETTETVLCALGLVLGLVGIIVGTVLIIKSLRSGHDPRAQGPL

Compound	IC50 [1]	IC50 ([2]; read-out: Binding capacity/IC50 (nM) DPA1*01:03 DPB1*04:01)	IC50 [3]	IC50 [4, 15]	IC50 [5, 16]	IC50 [6]	IC50 [7]	IC50 [8]	IC50 [9]	IC50 [10]	IC50 [11]	IC50 [12]	IC50 [2]	IC50 [5]	IC50 [13]	IC50 [14]	IC50 [4]
NYPIVQNLQGQMVHQAISPR-NH2 [p17(131-132)/p24(1-18)]	484 nM	1550 nM	248 nM	344 nM	211 nM	2870 nM	59 nM	5420 nM	4.4 nM	71 nM	83 nM	131 nM					
CC[C@H](C)[C@H](NC(=O)[C@H](CCCCN)NC(=O)[C@H](CCC(N)=O)NC(=O)[C@@H](NC(=O)[C@H](C)NC(=O)[C@H](CCC(=O)O)NC(=O)[C@@H](N)[C@@H](C)O)C(C)C)C(=O)N[C@@H](C)C(=O)N[C@H](C(=O)N[C@@H](CCC(=O)O)C(=O)N[C@@H](CO)C(=O)N[C@H](C(=O)N[C@H](C(=O)N[C@H](C(=O)N[C@@H](Cc1c[nH]c2ccccc12)C(=O)NCC(=O)N[C@@H](CCCCN)C(=O)N[C@H](C(=O)N1CCC[C@H]1C(=O)N[C@@H](CCCCN)C(=O)N[C@@H](Cc1ccccc1)C(=O)N[C@@H](CCCNC(=N)N)C(=O)N[C@@H](CC(C)C)C(N)=O)[C@@H](C)O)[C@@H](C)CC)C(C)C)[C@@H](C)CC)[C@@H](C)O [RT(369-391)]	1740 nM		310 nM	5360 nM		1540 nM	24 nM	20 nM	65 nM	24 nM	146 nM	20 nM	3220 nM	447 nM	1290 nM	287 nM	
DEELLKAVRIIKILYQSNP-NH2 [rev(9-27)]	5.8 nM		124 nM	466 nM		461 nM	3.9 nM	41 nM	7.4 nM	9.5 nM	13 nM		637 nM			632 nM	
LNKIVRMYSPVSILDI-NH2 [p24(138-153)]	1 nM		36 nM	16 nM		26 nM	6.6 nM			3.1 nM		25 nM	47 nM				
CC[C@H](C)[C@H](NC(=O)[C@@H]1CCCN1C(=O)[C@H](CCC(=O)O)NC(=O)[C@@H](N)CCCCN)C(=O)N[C@H](C(=O)NCC(=O)N[C@@H](C)C(=O)N[C@@H](CCC(=O)O)C(=O)N[C@H](C(=O)N[C@@H](Cc1ccccc1)C(=O)N[C@@H](Cc1ccc(O)cc1)C(=O)N[C@H](C(=O)N[C@@H](CC(=O)O)C(=O)NCC(=O)N[C@@H](C)C(N)=O)C(C)C)[C@@H](C)O)C(C)C [RT(431-445)]	132 nM		23 nM		230 nM	205 nM	4.4 nM	75 nM	5.1 nM	19 nM	23 nM	243 nM	4660 nM		266 nM		28400 nM
